Test [1] concerns the target T1, Mitogen-activated protein kinase 8 (Homo sapiens, UniProt P45983).
The target of test [2] is Mitogen-activated protein kinase 9 (Homo sapiens, UniProt P45984). The test is described as follows: Inhibition of JNK2 (unknown origin) by kinase profiling assay.
Test [3] has as its target Voltage-gated inwardly rectifying potassium channel KCNH2 (Homo sapiens, UniProt Q12809).
Test [4] has as its target TRAF2 and NCK-interacting protein kinase (Homo sapiens, UniProt Q9UKE5). Briefly: Inhibition of TNIK (unknown origin) by kinase profiling assay.
Test [5] concerns the target T2, Serine/threonine-protein kinase D3 (Homo sapiens, UniProt O94806).
T2 sequence (O94806 whole entry): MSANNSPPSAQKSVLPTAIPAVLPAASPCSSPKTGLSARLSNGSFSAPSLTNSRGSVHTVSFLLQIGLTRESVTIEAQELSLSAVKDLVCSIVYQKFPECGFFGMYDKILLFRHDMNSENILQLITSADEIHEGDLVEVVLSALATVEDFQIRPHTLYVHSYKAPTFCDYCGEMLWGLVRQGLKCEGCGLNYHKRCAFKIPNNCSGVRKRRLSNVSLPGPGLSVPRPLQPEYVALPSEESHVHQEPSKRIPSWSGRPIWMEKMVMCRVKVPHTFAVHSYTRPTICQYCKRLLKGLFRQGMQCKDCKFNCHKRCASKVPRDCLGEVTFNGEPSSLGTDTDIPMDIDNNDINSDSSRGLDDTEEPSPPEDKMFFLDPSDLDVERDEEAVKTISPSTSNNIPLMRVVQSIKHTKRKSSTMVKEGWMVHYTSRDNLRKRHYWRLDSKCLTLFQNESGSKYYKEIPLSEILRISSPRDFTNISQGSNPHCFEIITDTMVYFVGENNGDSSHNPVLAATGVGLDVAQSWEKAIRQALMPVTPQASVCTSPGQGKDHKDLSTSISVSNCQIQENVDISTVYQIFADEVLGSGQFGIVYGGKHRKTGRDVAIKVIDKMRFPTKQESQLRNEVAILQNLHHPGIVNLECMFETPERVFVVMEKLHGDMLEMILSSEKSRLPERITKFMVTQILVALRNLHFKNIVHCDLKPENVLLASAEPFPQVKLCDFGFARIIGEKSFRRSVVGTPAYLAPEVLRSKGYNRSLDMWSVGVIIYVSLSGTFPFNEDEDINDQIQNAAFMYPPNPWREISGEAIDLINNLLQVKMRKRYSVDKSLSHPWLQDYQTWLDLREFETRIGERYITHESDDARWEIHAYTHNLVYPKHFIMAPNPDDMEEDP
The test is described as follows: Inhibition of PKD3 (unknown origin) by kinase profiling assay.

Test [6] has as its target T1, Mitogen-activated protein kinase 8. The test is described as follows: Inhibition of JNK1 (unknown origin) by kinase profiling assay.
Test [7] has as its target T3, Dual specificity mitogen-activated protein kinase kinase 4 (Homo sapiens, UniProt P45985).
T3 sequence (P45985 whole entry): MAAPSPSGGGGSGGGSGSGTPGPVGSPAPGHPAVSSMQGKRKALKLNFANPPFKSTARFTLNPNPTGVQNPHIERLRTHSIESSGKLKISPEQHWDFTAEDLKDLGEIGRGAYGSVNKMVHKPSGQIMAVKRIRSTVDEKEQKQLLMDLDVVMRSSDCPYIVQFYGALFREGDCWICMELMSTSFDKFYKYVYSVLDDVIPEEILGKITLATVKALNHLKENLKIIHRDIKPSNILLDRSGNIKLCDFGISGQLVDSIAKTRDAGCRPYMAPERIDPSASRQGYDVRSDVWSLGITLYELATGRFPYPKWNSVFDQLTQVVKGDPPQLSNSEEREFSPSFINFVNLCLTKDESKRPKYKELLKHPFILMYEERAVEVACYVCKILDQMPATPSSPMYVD
The test is described as follows: Inhibition of MKK4 (unknown origin) by kinase profiling assay.

Test [8] has as its target Cyclin-dependent kinase-like 3 (Homo sapiens, UniProt Q8IVW4). The test is described as follows: Inhibition of CDKL3 (unknown origin) by kinase profiling assay.
Test [9] addresses T4, Dual specificity mitogen-activated protein kinase kinase 7 (Homo sapiens, UniProt O14733).
T4 sequence (O14733 whole entry): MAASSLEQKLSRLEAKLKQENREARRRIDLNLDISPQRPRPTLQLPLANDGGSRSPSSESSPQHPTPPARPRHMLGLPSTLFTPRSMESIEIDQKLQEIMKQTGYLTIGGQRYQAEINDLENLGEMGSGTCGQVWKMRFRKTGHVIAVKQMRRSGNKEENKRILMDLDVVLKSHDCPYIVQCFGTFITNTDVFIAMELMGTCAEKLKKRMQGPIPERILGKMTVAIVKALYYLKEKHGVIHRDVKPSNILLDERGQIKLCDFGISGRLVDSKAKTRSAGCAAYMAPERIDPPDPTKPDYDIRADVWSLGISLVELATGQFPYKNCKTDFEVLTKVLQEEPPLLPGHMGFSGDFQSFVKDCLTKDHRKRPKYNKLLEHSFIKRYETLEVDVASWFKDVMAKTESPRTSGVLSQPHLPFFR
Briefly: Inhibition of MKK7 (unknown origin) by kinase profiling assay.

The target in test [10] is Vascular endothelial growth factor receptor 3 (Homo sapiens, UniProt P35916). The test is described as follows: Inhibition of FLT4 (unknown origin) by kinase profiling assay.
Test [11] concerns the target Mitogen-activated protein kinase 10 (Homo sapiens, UniProt P53779).

35 compounds from ChEMBL document CHEMBL5316320, “Discovery of Novel Indazole Chemotypes as Isoform-Selective JNK3 Inhibitors for the Treatment of Parkinson's Disease” (J Med Chem, 2023) can be followed below.

As a reminder, the IC50 is the concentration that gives 50% inhibition. Higher therefore signals weaker potency.

Chain of Mitogen-activated protein kinase 10 (P53779 whole entry): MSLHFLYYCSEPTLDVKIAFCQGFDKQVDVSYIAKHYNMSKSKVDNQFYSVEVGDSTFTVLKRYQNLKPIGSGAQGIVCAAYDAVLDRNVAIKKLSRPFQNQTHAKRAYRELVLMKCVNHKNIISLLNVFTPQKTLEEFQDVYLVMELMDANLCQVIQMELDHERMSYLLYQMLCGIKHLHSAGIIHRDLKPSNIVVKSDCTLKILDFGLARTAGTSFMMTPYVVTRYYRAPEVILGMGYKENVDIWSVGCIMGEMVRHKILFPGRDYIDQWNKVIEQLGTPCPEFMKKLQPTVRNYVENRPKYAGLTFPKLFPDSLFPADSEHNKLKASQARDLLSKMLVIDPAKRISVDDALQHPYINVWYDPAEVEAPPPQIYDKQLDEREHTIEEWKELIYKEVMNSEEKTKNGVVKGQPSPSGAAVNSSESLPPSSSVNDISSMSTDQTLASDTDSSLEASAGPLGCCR
T1 sequence (P45983 whole entry): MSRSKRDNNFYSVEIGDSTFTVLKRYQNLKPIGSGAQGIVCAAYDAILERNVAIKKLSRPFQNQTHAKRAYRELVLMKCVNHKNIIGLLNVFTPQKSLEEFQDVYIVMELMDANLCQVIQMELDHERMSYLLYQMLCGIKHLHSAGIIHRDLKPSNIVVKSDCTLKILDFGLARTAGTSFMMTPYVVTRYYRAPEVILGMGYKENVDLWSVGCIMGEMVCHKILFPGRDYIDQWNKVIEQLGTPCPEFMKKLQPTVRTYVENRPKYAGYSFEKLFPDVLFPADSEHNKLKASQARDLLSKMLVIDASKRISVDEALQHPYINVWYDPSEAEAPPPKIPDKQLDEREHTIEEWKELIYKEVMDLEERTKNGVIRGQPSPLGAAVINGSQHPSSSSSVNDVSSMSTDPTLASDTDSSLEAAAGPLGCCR
Chain of Mitogen-activated protein kinase 9 (P45984 whole entry): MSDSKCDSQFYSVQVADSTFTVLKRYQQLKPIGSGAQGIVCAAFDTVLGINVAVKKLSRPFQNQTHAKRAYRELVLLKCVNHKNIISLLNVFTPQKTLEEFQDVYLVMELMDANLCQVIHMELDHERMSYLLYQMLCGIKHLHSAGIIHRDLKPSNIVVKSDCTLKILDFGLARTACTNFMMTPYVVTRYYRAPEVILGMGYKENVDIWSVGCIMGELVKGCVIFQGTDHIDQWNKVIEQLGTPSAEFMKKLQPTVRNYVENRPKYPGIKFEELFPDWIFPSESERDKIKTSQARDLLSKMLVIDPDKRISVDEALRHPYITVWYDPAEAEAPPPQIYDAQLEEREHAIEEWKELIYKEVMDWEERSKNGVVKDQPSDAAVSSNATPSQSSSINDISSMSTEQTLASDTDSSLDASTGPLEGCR
Chain of Vascular endothelial growth factor receptor 3 (P35916 whole entry): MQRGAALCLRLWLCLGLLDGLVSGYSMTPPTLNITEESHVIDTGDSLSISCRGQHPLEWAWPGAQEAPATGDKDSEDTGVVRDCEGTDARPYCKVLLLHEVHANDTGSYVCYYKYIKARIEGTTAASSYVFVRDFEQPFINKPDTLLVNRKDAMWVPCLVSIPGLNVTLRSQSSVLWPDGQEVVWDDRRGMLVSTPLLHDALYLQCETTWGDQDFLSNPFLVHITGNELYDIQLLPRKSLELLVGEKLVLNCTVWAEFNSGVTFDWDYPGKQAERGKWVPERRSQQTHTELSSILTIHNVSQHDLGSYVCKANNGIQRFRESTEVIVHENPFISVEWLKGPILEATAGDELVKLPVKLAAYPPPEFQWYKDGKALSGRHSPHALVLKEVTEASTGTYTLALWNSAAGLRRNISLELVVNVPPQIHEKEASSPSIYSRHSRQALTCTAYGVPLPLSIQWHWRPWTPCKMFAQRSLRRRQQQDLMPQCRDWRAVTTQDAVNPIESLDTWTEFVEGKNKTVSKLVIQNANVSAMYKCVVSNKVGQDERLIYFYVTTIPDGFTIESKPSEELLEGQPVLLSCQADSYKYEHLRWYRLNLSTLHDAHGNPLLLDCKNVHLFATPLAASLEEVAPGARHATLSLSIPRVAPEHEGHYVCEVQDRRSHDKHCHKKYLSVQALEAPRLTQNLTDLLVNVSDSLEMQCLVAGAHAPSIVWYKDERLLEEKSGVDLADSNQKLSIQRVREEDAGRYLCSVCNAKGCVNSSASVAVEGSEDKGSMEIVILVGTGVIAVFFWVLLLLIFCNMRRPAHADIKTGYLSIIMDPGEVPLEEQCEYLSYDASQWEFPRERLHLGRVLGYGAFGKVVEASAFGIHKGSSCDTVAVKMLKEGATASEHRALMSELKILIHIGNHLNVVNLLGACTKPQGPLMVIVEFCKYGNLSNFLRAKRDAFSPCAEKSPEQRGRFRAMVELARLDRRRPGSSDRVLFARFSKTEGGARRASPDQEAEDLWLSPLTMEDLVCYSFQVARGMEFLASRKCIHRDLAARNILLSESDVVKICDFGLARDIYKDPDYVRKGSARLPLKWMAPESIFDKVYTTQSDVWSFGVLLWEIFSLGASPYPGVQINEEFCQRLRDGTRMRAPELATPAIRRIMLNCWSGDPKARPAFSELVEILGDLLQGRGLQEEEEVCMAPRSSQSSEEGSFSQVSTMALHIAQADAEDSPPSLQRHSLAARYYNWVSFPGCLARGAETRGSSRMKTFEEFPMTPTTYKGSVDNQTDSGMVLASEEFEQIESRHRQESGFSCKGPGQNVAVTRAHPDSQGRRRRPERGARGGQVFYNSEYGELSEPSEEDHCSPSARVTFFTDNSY
Chain of Cyclin-dependent kinase-like 3 (Q8IVW4 whole entry): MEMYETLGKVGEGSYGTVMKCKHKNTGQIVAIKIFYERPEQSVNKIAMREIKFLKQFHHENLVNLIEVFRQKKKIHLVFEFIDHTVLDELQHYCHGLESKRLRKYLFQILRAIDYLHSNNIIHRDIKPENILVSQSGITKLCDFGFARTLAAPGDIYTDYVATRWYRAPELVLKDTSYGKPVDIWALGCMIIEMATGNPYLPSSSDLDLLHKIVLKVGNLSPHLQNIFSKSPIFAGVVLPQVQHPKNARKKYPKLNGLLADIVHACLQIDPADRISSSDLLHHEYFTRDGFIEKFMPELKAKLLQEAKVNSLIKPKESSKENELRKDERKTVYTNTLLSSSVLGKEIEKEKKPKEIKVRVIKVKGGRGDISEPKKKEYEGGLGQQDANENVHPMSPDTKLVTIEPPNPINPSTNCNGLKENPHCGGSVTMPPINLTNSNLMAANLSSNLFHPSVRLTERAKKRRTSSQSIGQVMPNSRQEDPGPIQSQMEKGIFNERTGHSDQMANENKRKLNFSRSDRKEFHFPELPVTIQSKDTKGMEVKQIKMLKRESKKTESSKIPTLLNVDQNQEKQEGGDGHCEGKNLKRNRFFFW
Chain of TRAF2 and NCK-interacting protein kinase (Q9UKE5 whole entry): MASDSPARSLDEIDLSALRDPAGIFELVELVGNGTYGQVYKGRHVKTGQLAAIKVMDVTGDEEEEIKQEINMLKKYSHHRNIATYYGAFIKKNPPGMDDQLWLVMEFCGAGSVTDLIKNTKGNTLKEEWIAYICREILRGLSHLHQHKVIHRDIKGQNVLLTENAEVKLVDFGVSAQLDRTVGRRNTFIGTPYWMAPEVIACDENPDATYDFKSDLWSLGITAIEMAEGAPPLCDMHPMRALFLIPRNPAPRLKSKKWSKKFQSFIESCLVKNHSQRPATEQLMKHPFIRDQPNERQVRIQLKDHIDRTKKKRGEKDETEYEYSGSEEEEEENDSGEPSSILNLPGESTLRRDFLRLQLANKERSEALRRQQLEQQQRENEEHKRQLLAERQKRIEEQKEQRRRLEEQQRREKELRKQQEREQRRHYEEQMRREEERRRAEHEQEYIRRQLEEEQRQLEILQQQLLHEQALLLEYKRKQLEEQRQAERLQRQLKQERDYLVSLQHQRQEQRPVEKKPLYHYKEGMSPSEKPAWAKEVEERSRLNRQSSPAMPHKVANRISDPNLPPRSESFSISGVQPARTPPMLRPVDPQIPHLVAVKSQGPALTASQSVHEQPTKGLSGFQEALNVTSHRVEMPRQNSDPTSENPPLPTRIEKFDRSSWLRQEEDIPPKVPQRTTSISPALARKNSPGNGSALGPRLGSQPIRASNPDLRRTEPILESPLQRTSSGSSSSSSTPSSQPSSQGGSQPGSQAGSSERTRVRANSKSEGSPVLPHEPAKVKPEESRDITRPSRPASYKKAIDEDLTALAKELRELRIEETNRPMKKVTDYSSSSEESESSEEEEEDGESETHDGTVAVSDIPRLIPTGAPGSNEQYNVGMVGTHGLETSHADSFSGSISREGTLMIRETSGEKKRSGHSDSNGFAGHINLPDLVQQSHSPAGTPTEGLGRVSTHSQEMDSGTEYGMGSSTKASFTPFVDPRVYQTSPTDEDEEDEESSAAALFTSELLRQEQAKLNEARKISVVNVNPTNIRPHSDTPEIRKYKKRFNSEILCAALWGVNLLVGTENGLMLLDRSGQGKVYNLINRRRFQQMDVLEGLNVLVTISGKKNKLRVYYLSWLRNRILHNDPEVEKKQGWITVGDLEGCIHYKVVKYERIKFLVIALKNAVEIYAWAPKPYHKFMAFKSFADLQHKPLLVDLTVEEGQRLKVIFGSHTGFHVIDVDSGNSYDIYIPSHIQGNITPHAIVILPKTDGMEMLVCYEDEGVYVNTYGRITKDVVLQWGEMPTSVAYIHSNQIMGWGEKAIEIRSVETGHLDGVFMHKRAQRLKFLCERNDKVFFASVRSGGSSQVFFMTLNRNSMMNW

Consider `O=C1c2ccccc2C2=NNC3=CC=CC1C32` (stereo unspecified), for which half-maximal inhibition in test [1] (IC50) was put at 0.0423 µM.
In the case of `O=C(c1cccc(CNc2n[nH]c3cccc(Cl)c23)c1)N1CCN(C(=O)c2ccc(Cl)cc2Cl)CC1`, the IC50 in [2] was 9.27 µM; in test [3], over 30 µM; in test [4], 0.367 µM; in test [5], 0.624 µM; in test [1], over 10 µM; in test [6], over 10 µM. The concentration for half-maximal inhibition (IC50) in [7] is over 10 µM; in [8], 0.669 µM; in test [9], over 10 µM; in test [10] it was 0.423 µM.
Regarding `Cc1cccc(Cl)c1C(=O)N1CCN(C(=O)c2ccc(CNc3n[nH]c4ccccc34)cc2)CC1`, the IC50 in test [1] is over 10 µM.
For the compound `O=C(NCCc1ccccc1)c1ccc(CNc2n[nH]c3ccccc23)cc1`, the IC50 in test [1] and in test [11] was over 10 µM throughout.
Consider `O=C(c1cccc(CNc2n[nH]c3ccccc23)c1)N1CCN(C(=O)c2ccc(Cl)cc2Cl)CC1`, for which the results for the IC50 in test [1] and in test [11] were 7.59 µM and 4.03 µM, respectively.
Take `O=C(c1ccc(CNc2n[nH]c3ccccc23)cc1)N1CCN(C(=O)c2c(Cl)cccc2C(F)(F)F)CC1`: the IC50 worked out at 7.66 µM in test [1] and 0.253 µM in test [11].
On the same counts, the results for `O=C(c1cccc(CNc2n[nH]c3ccccc23)c1)N1CCN(C(=O)c2c(F)cccc2Cl)CC1` are 7.82 µM and 4.3 µM.
`COc1ccc(C(=O)N2CCN(C(=O)c3ccc(CNc4n[nH]c5ccccc45)cc3)CC2)c(Cl)c1` gave an IC50 in [1] of over 10 µM.
Consider `O=C(c1ccc(CNc2n[nH]c3ccccc23)cc1)N1CCN(C(=O)c2cc(Cl)ccc2Cl)CC1`, for which the IC50 was 7.61 µM in test [1] and 0.205 µM in test [11].
As for `COc1ccc(C(=O)N2CCN(C(=O)c3ccc(CNc4n[nH]c5ccccc45)cc3)CC2)cc1`, the IC50 came out at 7.7 µM in [1] and 0.615 µM in test [11].
Taken in the same sequence, the figures for `O=C(c1cccc(CNc2n[nH]c3cccc(F)c23)c1)N1CCN(C(=O)c2ccc(Cl)cc2Cl)CC1` were 8 µM and 0.189 µM.
In the case of `O=C(NN1CCCCC1)c1ccc(CNc2n[nH]c3ccccc23)cc1`, the IC50 in test [1] was 9.06 µM.
As to `Cc1ccc(Cl)c(C(=O)N2CCN(C(=O)c3ccc(CNc4n[nH]c5ccccc45)cc3)CC2)c1`, the results for the concentration for half-maximal inhibition (IC50) in test [1] and in [11] were over 10 µM and 0.588 µM, respectively.
Take `O=C(Nc1cc(C(F)(F)F)cc(C(F)(F)F)c1)N1CCN(C(=O)c2ccc(CNc3n[nH]c4ccccc34)cc2)CC1`: the IC50 in test [1] is over 10 µM; in [11] it was 8.03 µM.
Compound `O=C(c1cccc(CNc2n[nH]c3cc(Cl)ccc23)c1)N1CCN(C(=O)c2ccc(Cl)cc2Cl)CC1` returned an IC50 in test [11] of 0.239 µM.
For the compound `O=C(c1ccc(Cl)cc1)N1CCN(C(=O)c2ccc(CNc3n[nH]c4ccccc34)cc2)CC1`, the IC50 was 8.82 µM in test [1] and 0.305 µM in test [11].
Taken in the same sequence, the figures for `Cc1cc(NC(=O)c2ccc(CNc3n[nH]c4ccccc34)cc2)ccc1Cl` were over 10 µM and over 10 µM.
Taken in the same sequence, the figures for `O=C(c1cccc(CNc2n[nH]c3c(Cl)cc([N+](=O)[O-])cc23)c1)N1CCN(C(=O)c2ccc(Cl)cc2Cl)CC1` were over 10 µM and over 10 µM.
For the compound `Cn1nc(NCc2cccc(C(=O)N3CCN(C(=O)c4ccc(Cl)cc4Cl)CC3)c2)c2ccccc21`, the IC50 in [1] and in test [11] was over 10 µM throughout.
Regarding `O=C(c1ccc(CNc2n[nH]c3ccccc23)cc1)N1CCN(C(=O)c2cccc(C(F)(F)F)c2)CC1`, the IC50 in [1] came out at 7.8 µM; in [11], 0.927 µM.
For `O=C(c1ccc(CNc2n[nH]c3ccccc23)cc1)N1CCN(C(=O)c2c(Cl)cccc2Cl)CC1`, in test [11], the IC50 was found to be 0.279 µM. This counts as sub-micromolar.
As to `O=C(Nc1ccccc1)c1ccc(CNc2n[nH]c3ccccc23)cc1`, the IC50 in test [1] and in test [11] was over 10 µM throughout.
Regarding `COc1ccc(NC(=O)c2ccc(CNc3n[nH]c4ccccc34)cc2)cc1`, the IC50 in test [1] and in test [11] was over 10 µM in each case.
In the case of `O=C(c1ccc(CNc2n[nH]c3ccccc23)cc1)N1CCN(C(=O)c2ccc(Br)cc2Br)CC1`, the IC50 in [1] was 8.85 µM; in [11], 0.248 µM.
Taken in the same sequence, the figures for `O=C(c1ccc(CNc2n[nH]c3ccccc23)cc1)N1CCN(C(=O)c2ccc(OC(F)(F)F)cc2)CC1` were 7.68 µM and 0.325 µM.
Taken in the same sequence, the figures for `Cc1cccc2c(NCc3cccc(C(=O)N4CCN(C(=O)c5ccc(Cl)cc5Cl)CC4)c3)n[nH]c12` were over 10 µM and over 10 µM.
Taken in the same sequence, the figures for `O=C(c1ccc(CNc2n[nH]c3ccccc23)cc1)N1CCCC1` were 8.07 µM and 7.51 µM.
As for `O=C(c1ccc(CNc2n[nH]c3ccccc23)cc1)N1CCN(C(=O)c2cc(C(F)(F)F)ccc2Cl)CC1`, the values for the IC50 in test [1] and in test [11] were 9.87 µM and 0.282 µM, respectively.
Turning to `O=C(Nc1ccc(Cl)cc1)c1ccc(CNc2n[nH]c3ccccc23)cc1`, the IC50 in test [1] and in [11] was over 10 µM each time.
As to `O=C(c1ccc(CNc2n[nH]c3ccccc23)cc1)N1CCN(C(=O)c2ccccc2I)CC1`, the IC50 in test [1] is 7.69 µM; in [11] it was 0.399 µM.
Taken in the same sequence, the figures for `O=C(c1ccc(CNc2n[nH]c3ccccc23)cc1)N1CCN(C(=O)c2ccc(F)cc2Cl)CC1` were 9.07 µM and 0.647 µM.
As to `O=C(c1cccc(CNc2n[nH]c3ccccc23)c1)N1CCN(C(=O)c2cc(C(F)(F)F)ccc2F)CC1`, inhibition in test [11] was half-maximal at 4.46 µM (IC50).
As to `O=C(Nc1ccccc1Cl)N1CCN(C(=O)c2ccc(CNc3n[nH]c4ccccc34)cc2)CC1`, the IC50 was found to be 7.79 µM in [1] and 0.619 µM in test [11].
With `O=C(c1ccc(CNc2n[nH]c3ccccc23)cc1)N1CCN(C(=O)c2ccccc2OC(F)(F)F)CC1`, the figures for the IC50 in test [1] and in [11] were 8.28 µM and 0.394 µM, respectively.
Taken in the same sequence, the figures for `O=C(c1ccc(CNc2n[nH]c3ccccc23)cc1)N1CCN(C(=O)c2cccc(F)c2Cl)CC1` were 8.91 µM and 0.384 µM.
